Patent US8835429B2, “Pyrimidine compounds, their use as mTOR kinase and Pl3 kinase inhibitors, and their syntheses” (Wyeth LLC, priority 2009, dated 2014)
Read-outs that look alike come from different tables or passages of the source.

Assays:
[1] = tested on: human tumor xenograft models; conditions: cited from earlier work
mTOR [2] = molecular target: T1, mTOR (Homo sapiens, UniProt P42345); conditions: read-out: mTOR IC50; mTOR complexes (PI103), mTOR enzyme (ZSTK474); cited from earlier work
[3] = tested on: acute lymphoblastic leukemia; conditions: in vivo; cited from earlier work
hSMG-1 = hSMG-1 (Homo sapiens, UniProt Q96Q15); conditions: read-out: hSMG-1 kinase activity IC50; cited from earlier work
PI3K-alpha = PI3K-alpha (Homo sapiens, UniProt P42336); test: PI3K-alpha fluorescence polarization assay; assay type: biochemical; conditions: 20 μM PIP2, 25 μM ATP; read-out: PI3Kα IC50
Outline: (§1)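 PIP2 (diC8) and ATP substrate with PI3K in 20 mM HEPES pH 7.5, 2 mM MgCl2, 0.05% CHAPS, 0.01% βME; 1% DMSO final; 30–60 min reaction. Stopped with EDTA plus GST-GRP (70 nM) and TAMRA probe (10 nM); FP (mP) read after 30–90 min, with no-enzyme controls.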

PI3K-gamma = PI3K-gamma (Homo sapiens, UniProt P48736); test: PI3K-gamma fluorescence polarization assay; assay type: biochemical; conditions: 20 μM PIP2, 25 μM ATP; read-out: PI3Kγ IC50
Outline: as §1

LNCap = test: In vitro cell growth assay (MTS), LNCap; assay type: cell-based; conditions: LNCaP, 72 h, human prostate line, three days after drug treatment
MDA468 = test: In vitro cell growth assay (MTS), MDA468; assay type: cell-based; conditions: 72 h, human breast line MDA468, three days after drug treatment, read-out: MDA IC50
mTOR [4] = molecular target: T1, mTOR; test: mTOR enzyme assay (DELFIA, purified FLAG-TOR, His6-S6K substrate); assay type: biochemical; parameters: FLAG; conditions: 100 μM ATP, 2 hours

Sequence of PI3K-gamma (P48736 whole entry, species assumed): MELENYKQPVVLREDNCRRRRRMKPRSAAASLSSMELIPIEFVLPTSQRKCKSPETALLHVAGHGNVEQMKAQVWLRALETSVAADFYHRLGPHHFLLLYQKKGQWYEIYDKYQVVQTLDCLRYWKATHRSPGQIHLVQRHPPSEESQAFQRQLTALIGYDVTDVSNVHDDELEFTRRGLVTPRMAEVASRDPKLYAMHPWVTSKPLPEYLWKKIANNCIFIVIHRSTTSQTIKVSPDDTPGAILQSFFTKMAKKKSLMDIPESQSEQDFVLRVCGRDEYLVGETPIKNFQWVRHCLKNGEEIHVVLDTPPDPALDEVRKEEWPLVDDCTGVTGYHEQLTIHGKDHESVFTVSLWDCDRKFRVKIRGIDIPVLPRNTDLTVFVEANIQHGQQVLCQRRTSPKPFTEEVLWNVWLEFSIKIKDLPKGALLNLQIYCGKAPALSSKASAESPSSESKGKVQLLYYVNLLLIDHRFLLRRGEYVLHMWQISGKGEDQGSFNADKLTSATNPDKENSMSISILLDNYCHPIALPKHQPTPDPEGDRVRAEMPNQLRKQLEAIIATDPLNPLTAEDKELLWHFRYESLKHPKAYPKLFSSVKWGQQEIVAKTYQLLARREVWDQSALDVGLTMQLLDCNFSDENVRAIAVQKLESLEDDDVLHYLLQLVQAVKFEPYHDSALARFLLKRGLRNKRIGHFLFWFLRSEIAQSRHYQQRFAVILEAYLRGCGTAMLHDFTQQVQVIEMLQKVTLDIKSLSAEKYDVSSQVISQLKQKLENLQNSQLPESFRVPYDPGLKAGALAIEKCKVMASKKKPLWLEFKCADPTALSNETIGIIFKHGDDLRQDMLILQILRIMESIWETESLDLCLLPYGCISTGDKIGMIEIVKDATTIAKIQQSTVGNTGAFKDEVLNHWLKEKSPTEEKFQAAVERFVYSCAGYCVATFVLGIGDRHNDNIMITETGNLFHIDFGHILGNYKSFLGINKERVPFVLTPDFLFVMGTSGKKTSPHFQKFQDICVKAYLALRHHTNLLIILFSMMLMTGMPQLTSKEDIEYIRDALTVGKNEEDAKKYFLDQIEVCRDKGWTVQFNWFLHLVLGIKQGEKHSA
Sequence of PI3K-alpha (P42336 whole entry, species assumed): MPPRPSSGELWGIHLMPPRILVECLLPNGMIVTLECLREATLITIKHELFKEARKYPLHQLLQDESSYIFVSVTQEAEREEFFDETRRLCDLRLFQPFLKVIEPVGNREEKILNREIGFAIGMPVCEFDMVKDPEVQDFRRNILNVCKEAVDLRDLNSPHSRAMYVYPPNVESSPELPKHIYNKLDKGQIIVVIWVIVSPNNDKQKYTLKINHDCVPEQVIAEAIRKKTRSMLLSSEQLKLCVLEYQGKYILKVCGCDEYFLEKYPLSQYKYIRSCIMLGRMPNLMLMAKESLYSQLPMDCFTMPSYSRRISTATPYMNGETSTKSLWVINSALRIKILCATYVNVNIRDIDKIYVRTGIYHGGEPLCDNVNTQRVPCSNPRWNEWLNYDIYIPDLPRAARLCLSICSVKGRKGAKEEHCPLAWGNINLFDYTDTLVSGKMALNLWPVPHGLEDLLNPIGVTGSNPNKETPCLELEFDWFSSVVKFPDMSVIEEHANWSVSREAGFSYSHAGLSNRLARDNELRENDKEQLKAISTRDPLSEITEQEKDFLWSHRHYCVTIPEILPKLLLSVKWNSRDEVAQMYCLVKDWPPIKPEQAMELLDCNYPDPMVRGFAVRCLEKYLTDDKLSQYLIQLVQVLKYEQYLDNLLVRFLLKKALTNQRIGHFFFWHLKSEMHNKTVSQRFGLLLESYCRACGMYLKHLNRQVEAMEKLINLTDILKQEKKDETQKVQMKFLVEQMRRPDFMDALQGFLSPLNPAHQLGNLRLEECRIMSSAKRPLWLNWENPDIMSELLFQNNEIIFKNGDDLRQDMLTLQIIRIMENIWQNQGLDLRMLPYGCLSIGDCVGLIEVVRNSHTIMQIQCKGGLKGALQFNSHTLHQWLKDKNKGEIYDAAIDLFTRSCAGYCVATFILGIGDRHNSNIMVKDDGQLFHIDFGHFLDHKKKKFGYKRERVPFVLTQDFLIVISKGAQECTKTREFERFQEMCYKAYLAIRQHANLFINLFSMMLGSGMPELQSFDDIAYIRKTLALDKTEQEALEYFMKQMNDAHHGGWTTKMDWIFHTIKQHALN
Sequence of PI3K-alpha (P27986 whole entry partner, species assumed): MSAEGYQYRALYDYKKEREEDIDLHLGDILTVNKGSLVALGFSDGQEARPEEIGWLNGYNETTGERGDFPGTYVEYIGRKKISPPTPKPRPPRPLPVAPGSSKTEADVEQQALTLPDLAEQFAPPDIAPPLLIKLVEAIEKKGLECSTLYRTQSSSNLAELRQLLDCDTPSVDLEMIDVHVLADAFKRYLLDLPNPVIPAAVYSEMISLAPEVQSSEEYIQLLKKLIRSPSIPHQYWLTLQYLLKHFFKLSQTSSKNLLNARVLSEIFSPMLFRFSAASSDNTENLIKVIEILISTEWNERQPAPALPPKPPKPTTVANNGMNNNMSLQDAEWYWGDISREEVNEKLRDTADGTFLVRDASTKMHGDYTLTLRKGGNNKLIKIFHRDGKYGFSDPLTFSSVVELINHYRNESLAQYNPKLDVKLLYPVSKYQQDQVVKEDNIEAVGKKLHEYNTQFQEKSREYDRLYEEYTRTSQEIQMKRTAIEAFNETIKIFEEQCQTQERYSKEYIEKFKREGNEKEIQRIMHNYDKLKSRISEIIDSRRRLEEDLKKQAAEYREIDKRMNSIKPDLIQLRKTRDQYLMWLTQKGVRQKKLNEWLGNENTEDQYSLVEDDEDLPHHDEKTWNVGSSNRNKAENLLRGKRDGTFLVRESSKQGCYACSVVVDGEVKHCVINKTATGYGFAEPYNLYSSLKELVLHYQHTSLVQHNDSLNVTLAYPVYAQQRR

FC(F)c1nc2ccccc2n1-c1nc(N2CCOCC2)nc(N2CCOCC2)n1 [ZSTK474, 2-(2-difluoromethylbenzoimidazol-1-yl)-4,6-dimorpholino-1,3,5-triazine]
tumor growth in mouse human xenograft cancer models ([1]; chronic oral administration, 400 mg/kg, A549, PC-3, WiDr): completely inhibited growth | IC50 (mTOR [2]): > 10000 nM

Oc1cccc(-c2nc(N3CCOCC3)c3oc4ncccc4c3n2)c1 [PI103, 3-(4-(4-morpholinyl)pyrido[3′,′:4,5]furo[3,2-d]pyrimidin-2-yl)phenol]
activity against human tumor models ([1]; I.P. dosing in mice, U87MG, PC3, MDA-MB-468, MDA-MB-435, HCT 116, SKOV3, IGROV-1): demonstrated activity

CO[C@H]1C[C@@H]2CC[C@@H](C)[C@@](O)(O2)C(=O)C(=O)N2CCCC[C@H]2C(=O)O[C@H]([C@H](C)C[C@@H]2CC[C@@H](OC(=O)C(C)(CO)CO)[C@H](OC)C2)CC(=O)[C@H](C)/C=C(\C)[C@@H](O)[C@@H](OC)C(=O)[C@H](C)C[C@H](C)/C=C/C=C/C=C/1C [Torisel]
activity in NOS/SCID xenograft mouse model of acute lymphoblastic leukemia [3]: active

Cn1c(=O)n(-c2ccc(C(C)(C)C#N)cc2)c2c3cc(-c4cnc5ccccc5c4)ccc3ncc21 [NVP-BEZ-235, 2-methyl-2-(4-(3-methyl-2-oxo-8-(quinolin-3-yl)-2,3-dihydro-1H-imidazo[4,5-c]quinolin-1-yl)phenyl)propanenitrile]
activity against human tumor models ([1]; PC-3 and U-87 xenografts): demonstrated activity

COC[C@H]1OC(=O)c2coc3c2[C@@]1(C)C1=C(C3=O)[C@@H]2CCC(=O)[C@@]2(C)C[C@H]1OC(C)=O [Wortmannin]
IC50 (hSMG-1): ~60 nM

C[C@@H]1COCCN1c1cc(N2C3CCC2COC3)nc(-c2ccc(NC(=O)Nc3cccnc3)cc2)n1 [1-(4-{4-[(3R)-3-methylmorpholin-4-yl]-6-(3-oxa-8-azabicyclo[3.2.1]oct-8-yl)pyrimidin-2-yl}phenyl)-3-pyridin-3-ylurea]
IC50 (PI3K-alpha): 1060 nM | IC50 (PI3K-gamma): 7470 nM | IC50 (LNCap): 20 nM | IC50 (MDA468): 80 nM | IC50 (mTOR [4]): 0.77 nM

CC(C)Nc1cc(N2C3CCC2COC3)nc(-c2ccc(NC(=O)Nc3ccc(OCCN4CCCC4)cc3)cc2)n1 [1-(4-{4-[(1-methylethyl)amino]-6-(3-oxa-8-azabicyclo[3.2.1]oct-8-yl)pyrimidin-2-yl}phenyl)-3-[4-(2-pyrrolidin-1-ylethoxy)phenyl]urea]
IC50 (PI3K-alpha): 1320 nM | IC50 (PI3K-gamma): 4730 nM | IC50 (LNCap): 50 nM | IC50 (MDA468): 55 nM | IC50 (mTOR [4]): 3.05 nM

O=C(Nc1ccc(-c2nc(C3CCOCC3)cc(N3C4CCC3COC4)n2)cc1)Nc1cccnc1 [1-{4-[4-(3-oxa-8-azabicyclo[3.2.1]oct-8-yl)-6-(tetrahydro-2H-pyran-4-yl)pyrimidin-2-yl]phenyl}-3-pyridin-3-ylurea]
IC50 (PI3K-alpha): 2690 nM | IC50 (PI3K-gamma): ≥ 10000 nM | IC50 (LNCap): 4 nM | IC50 (MDA468): 200 nM | IC50 (mTOR [4]): 0.32 nM

CS(=O)(=O)CCNc1cc(N2C3CCC2COC3)nc(-c2ccc(NC(=O)Nc3cccnc3)cc2)n1 [1-{4-[4-{[2-(methylsulfonyl)ethyl]amino}-6-(3-oxa-8-azabicyclo[3.2.1]oct-8-yl)pyrimidin-2-yl]phenyl}-3-pyridin-3-ylurea]
IC50 (PI3K-alpha): 1640 nM | IC50 (PI3K-gamma): ≥ 10000 nM | IC50 (LNCap): 2000 nM | IC50 (MDA468): 800 nM | IC50 (mTOR [4]): 5 nM

C[C@@H]1COCCN1c1cc(N2C3CCC2COC3)nc(-c2ccc(NC(=O)Nc3ccc(C(=O)N(C)C)cc3)cc2)n1 [N,N-dimethyl-4-{[(4-{4-[(3R)-3-methylmorpholin-4-yl]-6-(3-oxa-8-azabicyclo[3.2.1]oct-8-yl)pyrimidin-2-yl}phenyl)carbamoyl]amino}benzamide]
IC50 (PI3K-alpha): 108 nM | IC50 (PI3K-gamma): 1640 nM | IC50 (LNCap): ≤ 0.8 nM | IC50 (MDA468): 0.8 nM | IC50 (mTOR [4]): 0.44 nM

CC(C)N1CCN(C(=O)c2ccc(NC(=O)Nc3ccc(-c4nc(N5C[C@@H](C)O[C@@H](C)C5)cc(N5C6CCC5COC6)n4)cc3)cc2)CC1 [1-(4-{4-[(2R,6S)-2,6-dimethylmorpholin-4-yl]-6-(3-oxa-8-azabicyclo[3.2.1]oct-8-yl)pyrimidin-2-yl}phenyl)-3-(4-{[4-(1-methylethyl)piperazin-1-yl]carbonyl}phenyl)urea]
IC50 (PI3K-alpha): 293 nM | IC50 (PI3K-gamma): 915 nM | IC50 (LNCap): ≤ 0.8 nM | IC50 (MDA468): 0.8 nM | IC50 (mTOR [4]): 2.7 nM

C[C@@H]1COCCN1c1cc(N2C3CCC2COC3)nc(-c2ccc(NC(=O)Nc3ccc(C(=O)N4CCN(C)CC4)cc3)cc2)n1 [1-(4-{4-[(3R)-3-methylmorpholin-4-yl]-6-(3-oxa-8-azabicyclo[3.2.1]oct-8-yl)pyrimidin-2-yl}phenyl)-3-{4-[(4-methylpiperazin-1-yl)carbonyl]phenyl}urea]
IC50 (PI3K-alpha): 78 nM | IC50 (PI3K-gamma): 1130 nM | IC50 (LNCap): ≤ 0.8 nM | IC50 (MDA468): 0.8 nM | IC50 (mTOR [4]): 0.75 nM
